Measured values taken from patent US11919901B2 (Syndax Pharmaceuticals, Inc., priority 2021, dated 2024).

Legend:
hERG = hERG (Homo sapiens (Human), UniProt Q12809); assay: Patch clamp assay (hERG tail currents, whole-cell); format: cell-based; settings: hERG transfected HEK 293 cells; for hERG % Remaining 10 μM: 10 μM compound; for hERG % Remaining 30 μM: 30 μM compound
Menin-MLL = Menin-MLL (Homo sapiens (Human), UniProt O00255); assay: Determination of binding constants (Ki) to Menin-MLL (HTRF); settings: HTRF, 0.25 nM H-FL-Menin, 3.2 nM FITC-MLL-4-43, 24 hr incubation; for Ki: read-out: Menin-MLL Ki HTRF Assay: Ki
Sequence of Menin-MLL (O00255 whole entry): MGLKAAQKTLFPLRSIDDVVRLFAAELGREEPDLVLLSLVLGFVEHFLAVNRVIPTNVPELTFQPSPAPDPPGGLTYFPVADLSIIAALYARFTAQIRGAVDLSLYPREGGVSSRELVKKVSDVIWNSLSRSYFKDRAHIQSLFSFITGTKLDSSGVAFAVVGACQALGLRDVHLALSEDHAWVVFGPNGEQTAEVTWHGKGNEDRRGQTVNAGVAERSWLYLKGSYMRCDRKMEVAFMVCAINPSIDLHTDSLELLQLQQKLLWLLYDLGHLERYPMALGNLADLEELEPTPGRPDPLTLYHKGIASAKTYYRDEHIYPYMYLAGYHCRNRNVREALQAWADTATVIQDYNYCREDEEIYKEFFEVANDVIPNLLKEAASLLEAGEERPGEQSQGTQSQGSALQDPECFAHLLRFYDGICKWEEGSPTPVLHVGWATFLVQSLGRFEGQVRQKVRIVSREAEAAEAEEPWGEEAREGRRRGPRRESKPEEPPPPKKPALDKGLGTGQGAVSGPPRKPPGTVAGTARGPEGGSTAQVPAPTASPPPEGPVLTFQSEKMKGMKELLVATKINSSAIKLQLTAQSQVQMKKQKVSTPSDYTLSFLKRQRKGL

Sequence of hERG (Q12809 whole entry): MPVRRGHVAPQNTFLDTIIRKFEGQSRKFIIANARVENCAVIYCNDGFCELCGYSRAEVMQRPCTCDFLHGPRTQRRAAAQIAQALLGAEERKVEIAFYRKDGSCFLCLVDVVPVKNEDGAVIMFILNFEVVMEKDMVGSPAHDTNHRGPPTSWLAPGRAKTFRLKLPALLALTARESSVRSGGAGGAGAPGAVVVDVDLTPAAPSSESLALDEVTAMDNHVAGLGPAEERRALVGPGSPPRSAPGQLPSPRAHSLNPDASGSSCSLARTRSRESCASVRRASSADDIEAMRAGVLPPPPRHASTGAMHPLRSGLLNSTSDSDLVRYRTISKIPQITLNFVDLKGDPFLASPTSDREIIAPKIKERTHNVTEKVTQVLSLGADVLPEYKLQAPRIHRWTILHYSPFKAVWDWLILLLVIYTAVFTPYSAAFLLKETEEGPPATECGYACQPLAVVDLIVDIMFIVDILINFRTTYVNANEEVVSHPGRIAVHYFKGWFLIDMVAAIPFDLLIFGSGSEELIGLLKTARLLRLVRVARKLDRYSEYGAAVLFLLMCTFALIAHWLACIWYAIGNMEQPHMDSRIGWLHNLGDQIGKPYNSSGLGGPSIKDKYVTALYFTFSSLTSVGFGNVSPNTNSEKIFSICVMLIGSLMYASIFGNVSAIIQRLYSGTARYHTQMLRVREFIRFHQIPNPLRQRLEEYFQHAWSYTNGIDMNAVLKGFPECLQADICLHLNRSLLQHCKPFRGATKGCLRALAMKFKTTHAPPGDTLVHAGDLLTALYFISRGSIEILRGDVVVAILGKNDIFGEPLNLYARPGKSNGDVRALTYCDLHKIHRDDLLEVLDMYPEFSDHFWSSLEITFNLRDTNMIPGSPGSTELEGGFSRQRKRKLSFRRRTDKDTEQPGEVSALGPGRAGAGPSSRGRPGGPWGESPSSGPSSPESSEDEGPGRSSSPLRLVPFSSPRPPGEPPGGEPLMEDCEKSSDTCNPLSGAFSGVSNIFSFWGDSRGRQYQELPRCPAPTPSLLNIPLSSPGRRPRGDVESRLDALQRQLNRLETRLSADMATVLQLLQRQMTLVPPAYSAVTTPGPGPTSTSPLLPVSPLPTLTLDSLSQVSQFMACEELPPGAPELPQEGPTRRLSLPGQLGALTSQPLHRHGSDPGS

Structure (SMILES)	hERG % Remaining 10 μM (hERG)	hERG % Remaining 30 μM (hERG)	EC50 (Menin-MLL)	Ki (Menin-MLL)	IC50 (hERG)	hERG % Remaining 100 μM (hERG; 100 μM compound)
CC(C)N(C(=O)c1cc(F)ccc1Oc1cncnc1N1CC2(CCN(C[C@@H]3CC[C@@H](NS(=O)(=O)C4CC4)CO3)CC2)C1)C1CC(F)(F)C1 [Compound 111, 2-((4-(7-(((2S,5R)-5-(Cyclopropanesulfonamido)tetrahydro-2H-pyran-2-yl)methyl)-2,7-diazaspiro[3.5]nonan-2-yl)pyrimidin-5-yl)oxy)-N-(3,3-difluorocyclobutyl)-5-fluoro-N-isopropylbenzamide]	++ (“++” means ≥33% and <66%)	+ (“+” means <33%)	< 50 nM	< 1 nM	–	–
CC(C)N(C(=O)c1cc(F)ccc1Oc1cncnc1N1CC2(CCN(C[C@@H]3CC[C@@H](NS(=O)(=O)N(C)C)CO3)CC2)C1)C1CC(F)(F)C1 [Compound 113, N-(3,3-Difluorocyclobutyl)-2-((4-(7-(((2S,5R)-5-((N,N-dimethylsulfamoyl)amino)tetrahydro-2H-pyran-2-yl)methyl)-2,7-diazaspiro[3.5]nonan-2-yl)pyrimidin-5-yl)oxy)-5-fluoro-N-isopropylbenzamide]	+++ (“+++” means ≥66%)	++ (“++” means ≥33% and <66%)	< 50 nM	< 1 nM	–	–
CCN(CC)S(=O)(=O)N[C@@H]1CC[C@@H](CN2CCC3(CC2)CN(c2ncncc2Oc2ccc(F)cc2C(=O)N(C(C)C)C2CC(F)(F)C2)C3)OC1 [Compound 114, 2-((4-(7-(((2S,5R)-5-((N,N-Diethylsulfamoyl)amino)tetrahydro-2H-pyran-2-yl)methyl)-2,7-diazaspiro[3.5]nonan-2-yl)pyrimidin-5-yl)oxy)-N-(3,3-difluorocyclobutyl)-5-fluoro-N-isopropylbenzamide]	+ (“+” means <33%)	+ (“+” means <33%)	< 50 nM	< 1 nM	–	–
CC(C)N(C(=O)c1cc(F)ccc1Oc1cncnc1N1CC2(CCN(C[C@@H]3CC[C@@H](NS(=O)(=O)N4CCC4)CO3)CC2)C1)C1CC(F)(F)C1 [Compound 118, 2-((4-(7-(((2S,5R)-5-(Azetidine-1-sulfonamido)tetrahydro-2H-pyran-2-yl)methyl)-2,7-diazaspiro[3.5]nonan-2-yl)pyrimidin-5-yl)oxy)-N-(3,3-difluorocyclobutyl)-5-fluoro-N-isopropylbenzamide]	++ (“++” means ≥33% and <66%)	+ (“+” means <33%)	–	< 1 nM	–	–
CC(C)N(C(=O)c1cc(F)ccc1Oc1cncnc1N1CC2(CCN(C[C@@H]3CC[C@@H](NS(=O)(=O)N(C)C(C)C)CO3)CC2)C1)C1CC(F)(F)C1 [Compound 119, N-(3,3-Difluorocyclobutyl)-5-fluoro-N-isopropyl-2-((4-(7-(((2S,5R)-5-((N-isopropyl-N-methylsulfamoyl)amino)tetrahydro-2H-pyran-2-yl)methyl)-2,7-diazaspiro[3.5]nonan-2-yl)pyrimidin-5-yl)oxy)benzamide]	–	+ (“+” means <33%)	–	< 1 nM	–	–
C[C@@H]1COC[C@@H](C)N1C(=O)c1cc(F)ccc1Oc1cncnc1N1CC2(CCN(C[C@@H]3CC[C@@H](NS(=O)(=O)c4ccccc4)CO3)CC2)C1 [Compound 120, N-((3R,6S)-6-((2-(5-(2-((3R,5R)-3,5-Dimethylmorpholine-4-carbonyl)-4-fluorophenoxy)pyrimidin-4-yl)-2,7-diazaspiro[3.5]nonan-7-yl)methyl)tetrahydro-2H-pyran-3-yl)benzenesulfonamide]	+++ (“+++” means ≥66%)	++ (“++” means ≥33% and <66%)	< 50 nM	< 1 nM	–	–
C[C@@H]1COC[C@@H](C)N1C(=O)c1cc(F)ccc1Oc1cncnc1N1CC2(CCN(C[C@@H]3CC[C@@H](NS(=O)(=O)N4CCC4)CO3)CC2)C1 [Compound 121, N-((3R,6S)-6-((2-(5-(2-((3R,5R)-3,5-Dimethylmorpholine-4-carbonyl)-4-fluorophenoxy)pyrimidin-4-yl)-2,7-diazaspiro[3.5]nonan-7-yl)methyl)tetrahydro-2H-pyran-3-yl)azetidine-1-sulfonamide]	–	+++ (“+++” means ≥66%)	–	< 1 nM	–	–
Cc1nc(S(=O)(=O)N[C@@H]2CC[C@@H](CN3CCC4(CC3)CN(c3ncncc3Oc3ccc(F)cc3C(=O)N3[C@H](C)COC[C@H]3C)C4)OC2)cs1 [Compound 122, N-((3R,6S)-6-((2-(5-(2-((3R,5R)-3,5-Dimethylmorpholine-4-carbonyl)-4-fluorophenoxy)pyrimidin-4-yl)-2,7-diazaspiro[3.5]nonan-7-yl)methyl)tetrahydro-2H-pyran-3-yl)-2-methylthiazole-4-sulfonamide]	–	+++ (“+++” means ≥66%)	–	< 1 nM	≥ 50000 nM	–
C[C@@H]1COC[C@@H](C)N1C(=O)c1cc(F)ccc1Oc1cncnc1N1CC2(CCN(C[C@@H]3CC[C@@H](NS(=O)(=O)N(C)C)CO3)CC2)C1 [Compound 123, {[(3R,6S)-6-{[2-(5-{2-[(3R,5R)-3,5-Dimethylmorpholine-4-carbonyl]-4-fluorophenoxy}pyrimidin-4-yl)-2,7-diazaspiro[3.5]nonan-7-yl]methyl}oxan-3-yl]sulfamoyl}dimethylamine]	–	+++ (“+++” means ≥66%)	–	< 1 nM	–	–
CCNS(=O)(=O)N[C@@H]1CC[C@@H](CN2CCC3(CC2)CN(c2ncncc2Oc2ccc(F)cc2C(=O)N2[C@H](C)COC[C@H]2C)C3)OC1 [Compound 125, {[(3R,6S)-6-{[2-(5-{2-[(3R,5R)-3,5-Dimethylmorpholine-4-carbonyl]-4-fluorophenoxy}pyrimidin-4-yl)-2,7-diazaspiro[3.5]nonan-7-yl]methyl}oxan-3-yl]sulfamoyl}(ethyl)amine]	–	+++ (“+++” means ≥66%)	–	< 1 nM	–	–
C[C@@H]1COC[C@H](C)N1C(=O)c1cc(F)ccc1Oc1cncnc1N1CC2(CCN(C[C@@H]3CC[C@@H](NS(=O)(=O)c4ccccc4)CO3)CC2)C1 [Compound 130, N-((3R,6S)-6-((2-(5-(2-((3S,5R)-3,5-Dimethylmorpholine-4-carbonyl)-4-fluorophenoxy)pyrimidin-4-yl)-2,7-diazaspiro[3.5]nonan-7-yl)methyl)tetrahydro-2H-pyran-3-yl)benzenesulfonamide]	+++ (“+++” means ≥66%)	++ (“++” means ≥33% and <66%)	< 50 nM	< 1 nM	–	–
CC(C)N(C(=O)c1cc(F)ccc1Oc1cncnc1N1CC2(CCN(C[C@@H]3CC[C@@H](NS(=O)(=O)N4CCC4)CO3)CC2)C1)[C@H]1CCOC1 [Compound 134, 2-((4-(7-(((2S,5R)-5-(Azetidine-1-sulfonamido)tetrahydro-2H-pyran-2-yl)methyl)-2,7-diazaspiro[3.5]nonan-2-yl)pyrimidin-5-yl)oxy)-5-fluoro-N-isopropyl-N-((S)-tetrahydrofuran-3-yl)benzamide]	–	+++ (“+++” means ≥66%)	–	< 1 nM	–	–
CC(C)N(CCC#N)C(=O)c1cc(F)ccc1Oc1cncnc1N1CC2(CCN(C[C@@H]3CC[C@@H](NS(=O)(=O)c4ccccc4)CO3)CC2)C1 [Compound 136, N-(2-Cyanoethyl)-5-fluoro-N-isopropyl-2-((4-(7-(((2S,5R)-5-(phenylsulfonamido)tetrahydro-2H-pyran-2-yl)methyl)-2,7-diazaspiro[3.5]nonan-2-yl)pyrimidin-5-yl)oxy)benzamide]	+++ (“+++” means ≥66%)	+ (“+” means <33%)	< 50 nM	< 1 nM	–	–
CC(C)N(C)C(=O)c1cc(F)ccc1Oc1cncnc1N1CC2(CCN(C[C@@H]3CC[C@@H](NS(=O)(=O)N4CCC4)CO3)CC2)C1 [Compound 138, 2-((4-(7-(((2S,5R)-5-(Azetidine-1-sulfonamido)tetrahydro-2H-pyran-2-yl)methyl)-2,7-diazaspiro[3.5]nonan-2-yl)pyrimidin-5-yl)oxy)-5-fluoro-N-isopropyl-N-methylbenzamide]	–	+++ (“+++” means ≥66%)	–	< 1 nM	–	–
CCNS(=O)(=O)N[C@@H]1CC[C@@H](CN2CCC3(CC2)CN(c2ncncc2Oc2ccc(F)cc2C(=O)N(CC)C(C)C)C3)OC1 [Compound 141, N-Ethyl-2-((4-(7-(((2S,5R)-5-((N-ethylsulfamoyl)amino)tetrahydro-2H-pyran-2-yl)methyl)-2,7-diazaspiro[3.5]nonan-2-yl)pyrimidin-5-yl)oxy)-5-fluoro-N-isopropylbenzamide]	–	+++ (“+++” means ≥66%)	–	< 1 nM	–	–
CCN(C(=O)c1cc(F)ccc1Oc1cncnc1N1CC2(CCN(C[C@@H]3CC[C@@H](NS(=O)(=O)NC4CC4)CO3)CC2)C1)C(C)C [Compound 142, 2-((4-(7-(((2S,5R)-5-((N-Cyclopropylsulfamoyl)amino)tetrahydro-2H-pyran-2-yl)methyl)-2,7-diazaspiro[3.5]nonan-2-yl)pyrimidin-5-yl)oxy)-N-ethyl-5-fluoro-N-isopropylbenzamide]	–	++ (“++” means ≥33% and <66%)	–	< 1 nM	–	–
CNS(=O)(=O)N[C@@H]1CC[C@@H](CN2CCC3(CC2)CN(c2ncncc2Oc2ccc(F)cc2C(=O)N(C(C)C)C(C)C)C3)OC1 [Compound 143, 5-Fluoro-N,N-diisopropyl-2-((4-(7-(((2S,5R)-5-((N-methylsulfamoyl)amino)tetrahydro-2H-pyran-2-yl)methyl)-2,7-diazaspiro[3.5]nonan-2-yl)pyrimidin-5-yl)oxy)benzamide]	–	+++ (“+++” means ≥66%)	–	< 1 nM	≥ 50000 nM	+++ (“+++” means ≥66%)
CCNS(=O)(=O)N[C@@H]1CC[C@@H](CN2CCC3(CC2)CN(c2ncncc2Oc2ccc(F)cc2C(=O)N(C(C)C)C(C)C)C3)OC1 [Compound 144, 2-((4-(7-(((2S,5R)-5-((N-Ethylsulfamoyl)amino)tetrahydro-2H-pyran-2-yl)methyl)-2,7-diazaspiro[3.5]nonan-2-yl)pyrimidin-5-yl)oxy)-5-fluoro-N,N-diisopropylbenzamide]	–	+++ (“+++” means ≥66%)	–	< 1 nM	–	–
